Results as given in paper PMC9813109, “Phase I dose-escalation study of milademetan in patients with relapsed or refractory acute myeloid leukemia” (International Journal of Hematology, 2022).

Columns and labels:
[1] = system: macrophage inhibitory cytokine-1 (MIC-1) serum levels; experiment: Serum MIC-1 (GDF-15) ELISA, pharmacodynamic biomarker; assay type: in vivo, human
Procedure: To investigate biomarkers that could be potentially linked to the milademetan mechanism of action, blood, bone marrow, and serum were collected. TP53 tumor genotyping was done using bone marrow and blood samples collected before milademetan administration and at the end of treatment. TP53 genomic status was determined using a targeted next-generation sequencing following the reference human genome sequence (hg19). QIAamp® DSP FFPE Kit (Qiagen, Hilden, Germany) was used to extract DNA. Quantified DNA samples were processed by polymerase chain reaction (PCR) amplification using custom primer sets of all 11 TP53 exons. Libraries were prepared from purified PCR pools using Illumina TruSeq kits™ (Illumina, San Diego, CA, USA) and analyzed using the MiSeq platform™ (Illumina). Raw reads were aligned against hg19, and data sets were analyzed using a program developed in-house for genomic aberrations (i.e., mutations, deletions, and insertions) detection. Quantikine® ELISA Human GDF-15 immunoassay (R&D Systems, Inc., Minneapolis, MN, USA), employing the quantitative sandwich enzyme immunoassay technique, was used to determine serum MIC-1, also known as growth and differentiation factor-15 (GDF-15). […] In addition to descriptive statistics, the geometric mean and geometric coefficient of variation were used to describe the PK parameters. All analyses were conducted using SAS® software (version 9.4; SAS Institute Inc., Cary, NC, USA). The time courses of mean plasma milademetan concentrations on days 1 and 14 of cycle 1 (linear scale) in the QD 14/28-day schedule were used for pharmacokinetic analysis. The best response was measured as CR, CRh, CRi, or PR. For efficacy analysis, a waterfall plot of the best percent change from baseline blast count in bone marrow aspirate on the QD 14/28-day schedule was drawn to assess the blast count reduction. In addition, line plots of individual serum MIC-1 levels were drawn in the QD 14/28-day schedule for the pharmacodynamics analysis set.

MDM2–p53 interaction = system: MDM2–p53 interaction; set-up: method as in PMID 31310659, PMID 30724592; details: in vitro studies; cited from earlier work

CC1(C)CCC2(CC1)N[C@@H](C(=O)N[C@@H]1CC[C@@H](C(N)=O)OC1)[C@H](c1ccnc(Cl)c1F)[C@]21C(=O)Nc2cc(Cl)ccc21 [milademetan]
Mean serum MIC-1 levels vs baseline ([1]; all cohorts, after administration): increased from baseline in all cohorts
Peak MIC-1 levels, 120- and 160-mg cohorts vs 90-mg cohort ([1]; in vivo): tended to be higher
Time of peak serum MIC-1 level ([1]; most patients): day 8 or 14 of cycle 1
Effect on MDM2–p53 interaction (MDM2–p53 interaction): inhibits the MDM2–p53 interaction
